From patent US20070219214A1, “Dual NK2/NK3-antagonists, pharmaceutical compositions comprising them, and processes for their preparation” (Solvay pharmaceuticals GmbH, priority 2006, published 2007)

Experiments:
NK3-receptor = target: T1, NK3-receptor (Cavia porcellus, UniProt P30098); assay: NK-3-receptor-antagonistic effectiveness in vivo, senktide-induced hypertension in guinea pigs; settings: guinea pig, iv; read-out: ID50 (iv), inhibition of blood pressure
T1 construct: from tissue; host or cells: whole animal (Dunkin Hartley guinea pigs), in vivo
T1 sequence (P30098 1-440): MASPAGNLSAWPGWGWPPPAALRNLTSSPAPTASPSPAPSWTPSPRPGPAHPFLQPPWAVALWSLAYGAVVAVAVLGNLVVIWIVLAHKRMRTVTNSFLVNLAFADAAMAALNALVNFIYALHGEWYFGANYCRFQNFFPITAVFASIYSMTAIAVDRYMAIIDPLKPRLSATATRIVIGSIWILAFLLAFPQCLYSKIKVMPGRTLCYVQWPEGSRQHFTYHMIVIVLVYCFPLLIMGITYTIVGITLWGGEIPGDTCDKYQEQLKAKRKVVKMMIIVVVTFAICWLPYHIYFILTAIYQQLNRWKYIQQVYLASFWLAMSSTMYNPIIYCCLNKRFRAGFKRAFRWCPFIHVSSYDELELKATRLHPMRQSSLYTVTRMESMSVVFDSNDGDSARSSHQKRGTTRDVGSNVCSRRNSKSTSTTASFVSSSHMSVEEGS
Procedure: 9. Determination of the NK-3-Receptor-Antagonistic Effectiveness of the Test Substances In Vivo (Reduction of Blood Pressure in Guinea-Pigs with Senktide-Induced Hypertension)
NK3 agonists increase the blood pressure in guinea pigs. The senktide-induced hypertension can be antagonized by administering compounds with NK3-antagonistic properties. Measuring the level of hypertension is indicative of the degree of activity of the test compounds. The effect of the tested compound is assessed in the same experiment to exclude an additional hypertensional effect.
Male Dunkin Hartley guinea pigs with a body weight between 450 and 550 g were anesthetized with Ketamin (200 mg/kg i.m.; Aescoket 10%) and the left carotid artery and left jugular vein were cannulated for blood pressure measurement and drug application, respectively. The animals were allowed to breathe spontaneously. Blood pressure was measured with a strain gauge transducer connected to a computer via an amplifier.
For oral administration, vehicle (1% methylcellulose) or test compound was administered in a dose volume of 5 ml/kg. Forty five minutes thereafter, anesthesia was induced and the carotid artery and jugular vein were cannulated.
For intravenous administration, the test compounds were dissolved in 40% hydroxypropyl-β-cyclodextrine (HPCD) containing 10% DMSO, diluted with saline and administered intravenously in cumulative dose ranges. A vehicle group of animals received the corresponding HPCD/DMSO solutions instead of the test compound. For oral administration, the test compound was suspended in 1% methylcellulose. A vehicle group of animals received the corresponding […] of the test compound.

human NK2-receptor [1] = target: T2, human NK2-receptor (Homo sapiens, UniProt P21452); assay: Functional cellular test, Ca2+ measurements using FLIPR for NK2 activity; settings: for pA2 data for NK2: CHO cells, human NK2, FLIPR Ca2+, agonist NKA 10^-7 M;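 for all read-outs here: CHO cells stably expressing the human receptor, loaded with a calcium dye, antagonist inhibition of ligand-evoked intracellular calcium rise read as peak fluorescence change on FLIPR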
T2 sequence (P21452 1-398): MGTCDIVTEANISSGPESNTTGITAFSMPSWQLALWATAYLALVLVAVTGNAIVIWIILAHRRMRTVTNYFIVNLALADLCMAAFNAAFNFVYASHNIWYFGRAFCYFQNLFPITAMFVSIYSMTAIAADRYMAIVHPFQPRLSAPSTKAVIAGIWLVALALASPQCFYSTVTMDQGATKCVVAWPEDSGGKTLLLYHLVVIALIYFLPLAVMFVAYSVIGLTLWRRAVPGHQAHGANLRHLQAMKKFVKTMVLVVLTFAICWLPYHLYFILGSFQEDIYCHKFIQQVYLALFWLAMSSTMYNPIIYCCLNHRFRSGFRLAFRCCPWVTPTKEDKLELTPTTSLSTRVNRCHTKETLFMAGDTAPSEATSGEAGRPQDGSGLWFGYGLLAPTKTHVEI

human NK2-receptor [2] = target: T2, human NK2-receptor; assay: Binding potency of the test substances to NK2-receptors in vitro ([3H]-SR 48968 displacement); design: expressed in transfected cells; host or cells: CHO cells (membrane preparation); settings: human NK2-receptor in CHO cell membranes, [3H]-SR 48968 (saredutant); average of at least three measurements; read-out: pKi, binding potency to NK2-receptors (converted)
In short: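 Membranes from CHO cells stably expressing the receptor were incubated with [3H]-saredutant plus test compound, then filtered and counted by liquid scintillation. Nonspecific binding defined with 0.1 μmol/l unlabeled saredutant. IC50 from displacement converted to Ki via Cheng-Prusoff and reported as pKi, averaged over measurements.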

human NK3 receptor [3] = target: T3, human NK3 receptor (Homo sapiens, UniProt P29371); assay: Functional cellular test, Ca2+ measurements using aequorin for NK3 activity; assay type: cell-based; design: expressed in transfected cells; host or cells: cell line co-expressing mitochondrially targeted apoaequorin (CHO according to b76/b77); settings: for pA2 data for NK3: cell line with human NK3 receptor and apoaequorin, agonist senktide 5x10-8 M
T3 sequence (P29371 1-465): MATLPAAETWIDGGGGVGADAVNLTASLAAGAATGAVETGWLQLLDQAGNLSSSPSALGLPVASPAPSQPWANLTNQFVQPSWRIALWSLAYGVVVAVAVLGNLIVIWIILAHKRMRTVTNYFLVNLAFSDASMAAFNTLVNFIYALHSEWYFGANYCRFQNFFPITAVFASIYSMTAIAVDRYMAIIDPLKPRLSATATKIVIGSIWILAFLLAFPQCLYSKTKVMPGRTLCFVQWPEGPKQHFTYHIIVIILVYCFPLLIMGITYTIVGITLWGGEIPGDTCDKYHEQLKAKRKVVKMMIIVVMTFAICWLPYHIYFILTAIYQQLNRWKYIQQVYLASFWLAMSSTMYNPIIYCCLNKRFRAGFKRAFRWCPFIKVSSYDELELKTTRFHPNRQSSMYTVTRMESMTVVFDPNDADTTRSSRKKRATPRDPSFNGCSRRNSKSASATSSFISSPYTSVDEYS

human NK1-receptor [4] = target: T4, human NK1-receptor (Homo sapiens, UniProt P25103); assay: Binding potency of the test substances to NK1-receptors in vitro ([3H]-Substance P displacement); settings: human NK1-receptor in CHO cell membranes, average of at least three measurements
Procedure: 1. Determination of the Binding Potency of the Test Substances to NK1-Receptors in Vitro
The affinity of test compounds for NK1-receptors can be determined by measuring the ability of the test compound to displace a radiolabeled ligand from its specific binding site. The tests were performed at Solvay Pharmaceuticals, Weesp, The Netherlands.
Separation of bound radioactivity from free radioactivity was done by filtration through glass fiber filters (Packard GF/B) with several washings with ice-cold buffer solution. Bound radioactivity was measured with a liquid scintillation counter (total binding).
The inhibition constant (Ki) was calculated according to the Cheng-Prusoff equation, and listed as its negative logarithmic value (pKi). The pKi value describes the potency of a test compound to bind to a receptor.

NK1-receptor = target: T5, NK1-receptor (Cavia porcellus, UniProt P30547); assay: NK1-receptor-antagonistic effectiveness in vivo, NKA-induced early hypotension in anaesthetised guinea pigs; settings: guinea pig, NKA 200 pmol/animal i.v.; for ED50 iv after 1 min (cumulative), NK1 (early hypotension): intravenous administration
T5 construct: from tissue; host or cells: whole animal (Pirbright-White guinea pigs), in vivo
Text: (§1) 10. Determination of the NK1- and NK2-Receptor-Antagonistic Effectiveness of the Test Substances In Vivo
(§2) The NK1- and NK2-antagonistic activities of the test substances were investigated in anaesthetised guinea pigs in each case after intravenous (=i.v.) and oral (=p.o.) administration in vivo. With the present test model it is possible to detect both NK2-antagonistic effects in three different organ systems (respiratory tracts, colon and circulation) and NK1-antagonistic effects (rapid drop in blood pressure) in an animal simultaneously.
(§3) Pirbright-White guinea pigs of a body weight of 500-700 g were anaesthetised with ketamine/xylazine (67/13 mg/kg subcutaneously, initial dose, further doses administered as required). The animals were provided with an intravenous catheter in order to administer the substance and an intra-arterial catheter to measure the blood pressure. The animals were artificially ventilated via a tracheal cannula and the respiratory pressure was recorded by means of a pressure transducer. A balloon was introduced into the distal colon of the animals for manometric recording of colon motility by means of a pressure transducer. Blood pressure, heart rate, respiratory pressure and colonic pressure were measured continuously for each animal and plotted on a recorder and by means of a digital data-processing system. […] The second phase of delayed hypotension (=phase of maximum hypotension after 2-5 min.) on the other hand is mediated via NK2-receptors, since they can be blocked by specific NK2-receptor antagonists.
(§4) These ED50 values obtained from cumulative dose effect curves are plotted in Table 13.

NK2-receptor = target: T6, NK2-receptor (Cavia porcellus, UniProt Q64077); assay: NK2-receptor-antagonistic effectiveness in vivo, NKA-induced late hypotension, bronchoconstriction and colonic pressure in anaesthetised guinea pigs; settings: guinea pig; for ED50 iv after 1 min (cumulative), NK2 (bronchoconstriction) / ED50 iv after 1 min (cumulative), NK2 (colonic motility) / ED50 iv after 1 min (cumulative), NK2 (late hypotension): intravenous administration
T6 construct: from tissue; host or cells: whole animal (Pirbright-White guinea pigs), in vivo
T6 sequence (Q64077 1-402): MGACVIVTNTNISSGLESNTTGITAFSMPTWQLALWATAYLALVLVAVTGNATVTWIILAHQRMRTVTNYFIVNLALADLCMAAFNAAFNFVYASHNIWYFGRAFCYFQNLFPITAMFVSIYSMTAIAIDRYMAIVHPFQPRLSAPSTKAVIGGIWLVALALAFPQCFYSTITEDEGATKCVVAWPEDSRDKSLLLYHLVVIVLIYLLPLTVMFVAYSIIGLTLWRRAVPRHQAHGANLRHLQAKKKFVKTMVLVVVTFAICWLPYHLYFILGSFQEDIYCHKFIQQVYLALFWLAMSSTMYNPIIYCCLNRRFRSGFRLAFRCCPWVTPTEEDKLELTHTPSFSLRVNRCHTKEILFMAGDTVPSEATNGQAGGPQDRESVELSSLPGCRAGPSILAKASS
Text: as §1, §2, §3, §4

human NK1-receptor [5] = target: T4, human NK1-receptor; assay: Functional cellular test, Ca2+ measurements using FLIPR for NK1 activity; assay type: cell-based; design: expressed in transfected cells; host or cells: CHO fibroblast cells; settings: CHO cells, human NK1, FLIPR Ca2+, agonist substance P 10^-8 M
Text: The NK receptor is coupled to Gq.
All steps were done under sterile conditions.

human NK3 receptor [6] = target: T3, human NK3 receptor; assay: Binding potency of the test substances to NK3-receptors in vitro ([3H]-SR 142801 displacement); design: expressed in transfected cells; host or cells: CHO cells (membrane preparation); settings: human NK3-receptor in CHO cell membranes, [3H]-SR 142801 (osanetant); average of at least three measurements
In short: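 [3H]-osanetant displacement on membranes from CHO cells stably expressing the human receptor, with bound ligand separated by filtration and counted by scintillation. Nonspecific binding defined with 1 μmol/l unlabeled osanetant. IC50 converted to Ki by Cheng-Prusoff and reported as pKi, averaged over measurements.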

[7] = NKA 200 pmol/animal i.v., oral administration

T5 sequence (P30547 whole entry): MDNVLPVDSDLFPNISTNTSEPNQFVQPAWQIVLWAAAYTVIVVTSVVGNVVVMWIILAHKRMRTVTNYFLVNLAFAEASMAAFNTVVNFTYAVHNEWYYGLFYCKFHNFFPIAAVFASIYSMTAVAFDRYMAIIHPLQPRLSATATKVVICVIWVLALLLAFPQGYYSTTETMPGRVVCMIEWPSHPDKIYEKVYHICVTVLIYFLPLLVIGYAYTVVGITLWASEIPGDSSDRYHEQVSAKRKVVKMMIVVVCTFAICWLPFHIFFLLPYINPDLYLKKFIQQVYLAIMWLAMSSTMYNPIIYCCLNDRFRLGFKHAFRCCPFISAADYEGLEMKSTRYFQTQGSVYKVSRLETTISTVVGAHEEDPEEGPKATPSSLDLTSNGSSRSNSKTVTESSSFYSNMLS
T4 sequence (P25103 whole entry): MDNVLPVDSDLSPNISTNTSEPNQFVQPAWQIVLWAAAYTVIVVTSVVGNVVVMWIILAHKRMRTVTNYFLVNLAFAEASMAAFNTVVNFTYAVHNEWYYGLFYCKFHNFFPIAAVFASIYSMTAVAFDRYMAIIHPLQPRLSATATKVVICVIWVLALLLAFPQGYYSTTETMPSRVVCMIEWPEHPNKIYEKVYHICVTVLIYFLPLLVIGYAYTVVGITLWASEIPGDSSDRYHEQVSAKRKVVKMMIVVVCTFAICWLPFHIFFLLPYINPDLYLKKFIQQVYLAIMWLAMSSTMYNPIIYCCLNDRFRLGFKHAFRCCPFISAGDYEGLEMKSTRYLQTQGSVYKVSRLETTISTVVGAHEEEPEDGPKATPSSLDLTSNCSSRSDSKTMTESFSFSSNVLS

Kb (human NK2-receptor [1])	Ki (human NK2-receptor [2])	Kb (human NK3 receptor [3]; read-out: pA2 data for NK3 (converted))	pKi, binding potency to NK1-receptors (human NK1-receptor [4])	ED50 iv after 1 min (cumulative), NK1 (early hypotension) (NK1-receptor)	ED50 AUC1-180 min oral, NK1 (early hypotension) (NK1-receptor; oral administration)	ED50 iv after 1 min (cumulative), NK2 (bronchoconstriction) (NK2-receptor; NKA 200 pmol/animal i.v.)	ED50 iv after 1 min (cumulative), NK2 (colonic motility) (NK2-receptor; NKA 200 pmol/animal i.v.)	ED50 iv after 1 min (cumulative), NK2 (late hypotension) (NK2-receptor; NKA 200 pmol/animal i.v.)	ED50 AUC1-180 min oral, NK2 (bronchoconstriction) (NK2-receptor; [7])	ED50 AUC1-180 min oral, NK2 (colonic motility) (NK2-receptor; [7])	ED50 AUC1-180 min oral, NK2 (late hypotension) (NK2-receptor; [7])	oral activity on the NK2, in words (NK2-receptor; oral administration)	pA2 data for NK1 (human NK1-receptor [5])	pA2 data for NK2 (human NK2-receptor [1])	pA2 data for NK3 (human NK3 receptor [3])	pKi, binding potency to NK3-receptors (human NK3 receptor [6])	SMILES	ED50 (NK3-receptor)
0.501 nM	0.398 nM	31.6 nM															CNC(=O)C1(N2CCCCC2)CCN(CC[C@H](CN(C)C(=O)c2ccccc2)c2ccc(Cl)c(Cl)c2)CC1 [compound 2]	1.98 mg/kg
			7.4	>1.462 µmol/kg	>3.2 µmol/kg	0.731 µmol/kg	0.294 µmol/kg	1.113 µmol/kg	>3.2 µmol/kg	>3.2 µmol/kg	>3.2 µmol/kg	active orally on the NK2	7.1	8.6	8.4		CN(C)C(=O)C1(N2CCCCC2)CCN(CC[C@H](CN(C)C(=O)c2ccc(F)c(Cl)c2)c2ccc(Cl)c(Cl)c2)CC1 [compound 8]	
			7.6	>1.462 µmol/kg		0.058 µmol/kg	0.053 µmol/kg	0.108 µmol/kg					8.0	8.6	8.0	8.4	CN(C)C(=O)C1(N2CCCCC2)CCN(CC[C@H](CN(C)C(=O)c2cc(F)cc(F)c2)c2ccc(Cl)c(Cl)c2)CC1 [compound 9]	
